Target: T1, PA0254/HudA (PA0254^UbiX) (Pseudomonas aeruginosa, UniProt Q9I6N5)
T1 sequence (Q9I6N5 1-496): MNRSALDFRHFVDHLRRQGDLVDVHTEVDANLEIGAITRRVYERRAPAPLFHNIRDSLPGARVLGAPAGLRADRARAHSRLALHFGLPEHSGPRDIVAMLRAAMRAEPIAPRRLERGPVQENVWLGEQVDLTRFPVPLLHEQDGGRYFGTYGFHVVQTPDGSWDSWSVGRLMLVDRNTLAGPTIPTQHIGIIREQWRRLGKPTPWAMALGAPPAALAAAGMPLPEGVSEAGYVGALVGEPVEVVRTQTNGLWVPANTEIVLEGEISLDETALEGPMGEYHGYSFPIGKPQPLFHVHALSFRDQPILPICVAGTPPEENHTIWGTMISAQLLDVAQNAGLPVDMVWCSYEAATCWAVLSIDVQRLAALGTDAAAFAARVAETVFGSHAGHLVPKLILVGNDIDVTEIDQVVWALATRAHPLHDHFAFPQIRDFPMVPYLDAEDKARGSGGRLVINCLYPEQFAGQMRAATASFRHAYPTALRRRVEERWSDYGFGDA
Experiment: inhibition of P2C decarboxylation, histidine-eluted enzyme
Format: biochemical
Settings: read-out: % inhibition at 10 mM

SMILES: c1c[nH]cn1 [imidazole]
- inhibition at 10000 µM: ~50%

— PMC7976604 (ACS Catalysis, 2021)
